Measured values from paper PMC6332029, “Mimosine Dipeptide Enantiomsers: Improved Inhibitors against Melanogenesis and Cyclooxygenase” (Molecules, 2015).
Several values for one entry are separate records, joined by “and”; a condition that tells them apart may be missing. Identical values can stand only once. Like-named read-outs stand apart in the source and are kept apart here.

Legend:
mushroom tyrosinase [1] = experiment: Mushroom tyrosinase inhibition microplate assay (L-tyrosine substrate); format: biochemical; conditions: L-tyrosine as substrate; mean ± SE
Description: (§1) A microplate assay was used to assess tyrosinase inhibition, as previously described. Samples (20 μL) with various concentrations were transferred into each well of 96-well plate, and 120 μL of 20 mM sodium phosphate buffer (pH 6.8), 20 μL of 500 U/mL mushroom tyrosinase enzyme dissolved in buffer were added. […] The absorbance was recorded at 470 nm using a microplate reader (Benchmark plus, Biorad, Herfordshire, UK). […] For the kinetic studies of selected inhibitors, we used a range of L-tyrosine concentrations for each inhibitor concentration. Preincubation and measurement times were the same as above. Lineweaver-Burk plots were used to determine the type of enzyme inhibition, and the inhibition constant Ki was determined by plotting Km/Vmax versus the inhibitor concentration. Percent inhibition was calculated using the following equation: Inhibition (%) = ([CE − Co] − [SE − So])/(CE − Co) × 100 (1) where CE is the absorbance of the control samples with enzyme, Co is the absorbance of the control samples without enzyme, SE is the absorbance of the tested sample with enzyme, and So is the absorbance of the tested sample without enzyme.

B16F10 melanoma cells = experiment: Determination of melanin content in B16F10 cells; format: cell-based, Mouse; conditions: read-out: IC50 for Melanin Content Inhibition
Description: (§2) Mouse B16F10 cell line was obtained from American Type Culture Collection (Manassas, VA, USA). Cells were cultured in Dulbecco’s modified minimum essential medium (D-MEM) medium containing 10% fetal bovine serum (FBS), 1% penicillin/streptomycin in a humidified atmosphere with 5% CO2 incubator at 37 °C.
The assay was performed following previously described procedure. Cells (5 × 10^3 cells/well) were seeded in a 96-well plate and cultured for 24 h. Compounds (10–500 μM) were added and incubated at 37 °C for 48 h. The medium was replaced by a fresh medium containing the same concentration of compound and the cells were incubated for 48 h. The medium was removed and the cells were dissolved in 100 μL of 1 N NaOH. The reaction was heated at 90 °C for 1 h. Melanin content was estimated by the absorbance at 400 nm.

COX-1 = target: T1, COX-1 (Ovis aries, UniProt P05979); experiment: Colorimetric COX (ovine) inhibitor screening assay, COX-1; format: biochemical; conditions: ovine COX-1, colorimetric kit; mean ± SE
T1 construct: purchased Cayman Chemical, Ann Arbor, Michigan, USA
T1 sequence (P05979 25-600): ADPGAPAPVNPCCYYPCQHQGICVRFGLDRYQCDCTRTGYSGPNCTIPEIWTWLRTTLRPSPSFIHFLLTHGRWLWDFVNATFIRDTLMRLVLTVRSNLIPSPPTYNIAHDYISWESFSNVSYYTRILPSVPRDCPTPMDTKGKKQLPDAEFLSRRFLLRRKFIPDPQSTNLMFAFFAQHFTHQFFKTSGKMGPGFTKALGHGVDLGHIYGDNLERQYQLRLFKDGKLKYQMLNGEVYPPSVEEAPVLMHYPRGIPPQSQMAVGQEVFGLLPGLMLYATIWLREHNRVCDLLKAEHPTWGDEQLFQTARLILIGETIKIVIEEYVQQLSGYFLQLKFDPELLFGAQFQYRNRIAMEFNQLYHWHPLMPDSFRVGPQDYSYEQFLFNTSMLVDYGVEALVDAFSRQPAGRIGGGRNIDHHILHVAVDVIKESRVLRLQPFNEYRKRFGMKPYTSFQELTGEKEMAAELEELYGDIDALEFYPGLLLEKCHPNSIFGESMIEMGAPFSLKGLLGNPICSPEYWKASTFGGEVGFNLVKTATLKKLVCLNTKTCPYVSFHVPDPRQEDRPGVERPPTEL
Description: (§3) Inhibition of COX activity was measured using a colorimetric COX (ovine) inhibitor screening assay kit (Cayman Chemical, Ann Arbor, Michigan, USA). First, 150 μL of assay buffer (0.1 M Tris-HCl, pH 8.0), 10 μL of heme, and 10 μL of enzyme (COX-1 or COX-2) were added to an […] 96-well microtiter plate. Immediately, 10 μL of sample was added to inhibitor wells while 10 μL of solvent or buffer was added to control and background wells, respectively. […] The mixture was shaken for a few seconds and incubated for an additional 5 min at 25 °C. The absorbance was determined at 590 nm using a microplate reader (Benchmark plus, Biorad, Herfordshire, UK). […] The corrected absorbance of all the samples and controls was calculated by subtracting the absorbance of the background wells. The percentage of inhibition was calculated as follows: Inhibition (%) = (Ao − As)/Ao × 100 (2) where Ao and As are the absorbance of the corrected control and sample, respectively.

COX-2 [2] = target: T2, COX-2 (Ovis aries, UniProt P79208); experiment: Colorimetric COX (ovine) inhibitor screening assay, COX-2; format: biochemical; conditions: ovine COX-2, colorimetric kit; mean ± SE
T2 sequence (P79208 17-603): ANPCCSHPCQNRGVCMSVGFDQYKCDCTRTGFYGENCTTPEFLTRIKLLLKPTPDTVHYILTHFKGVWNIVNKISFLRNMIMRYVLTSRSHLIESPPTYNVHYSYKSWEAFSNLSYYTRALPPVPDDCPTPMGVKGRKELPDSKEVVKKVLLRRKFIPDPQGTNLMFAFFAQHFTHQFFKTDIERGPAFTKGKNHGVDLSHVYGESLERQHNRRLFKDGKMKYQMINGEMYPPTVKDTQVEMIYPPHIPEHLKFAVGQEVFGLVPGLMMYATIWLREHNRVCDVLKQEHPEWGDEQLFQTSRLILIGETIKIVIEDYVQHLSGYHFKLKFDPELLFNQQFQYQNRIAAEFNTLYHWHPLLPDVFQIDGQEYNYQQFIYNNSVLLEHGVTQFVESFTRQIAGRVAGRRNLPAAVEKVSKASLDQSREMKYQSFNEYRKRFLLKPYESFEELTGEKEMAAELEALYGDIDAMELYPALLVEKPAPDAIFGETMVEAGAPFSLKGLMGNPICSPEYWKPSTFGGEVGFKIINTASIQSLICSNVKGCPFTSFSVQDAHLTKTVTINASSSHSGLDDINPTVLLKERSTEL
Description: as §3

COX-2 [3] = experiment: as above; format: biochemical; conditions: ratio of COX-1 IC50 to COX-2 IC50
Description: as §3

[4] = tested on: intracellular tyrosinase in B16F10 melanoma cells; experiment: Intracellular tyrosinase inhibition assay; format: cell-based, Mouse; conditions: L-DOPA substrate, mean ± SE, read-out: IC50 for Cellular Tyrosinase Inhibition
Description: as §2
Cells were seeded in a 96-well plate at a density 5 × 10^3 cells/well and the compounds (10–500 μM) were added after 24 h treatment. Cells were incubated for 48 h, washed two times with 50 mM of ice-cold phosphate buffer (pH 6.8), lysed with 90 μL of 50 mM phosphate buffer (pH 6.8) containing 1% Triton-X, and frozen at −80 °C for 30 min. After thawing and mixing, 20 μL of 0.5% L-DOPA was added to each well. The mixture was incubated for 2 h at 37 °C and absorbance was measured at 490 nm.

mushroom tyrosinase [5] = experiment: Kinetic analysis of tyrosinase inhibition (Lineweaver-Burk plots); format: biochemical; conditions: substrate L-tyrosine; for Inhibition Type: Lineweaver-Burk plots, inhibitor 0, 5, 15 μM; for Ki: plot of Km/Vmax versus inhibitor concentration, read-out: Inhibition Constant (Ki)
Description: Tyrosinase activity was assayed as described in the text.
as §1

mushroom tyrosinase [6] = tested on: mushroom tyrosinase; set-up: method as in doi:10.1016/S0031-9422(00)82317-1; conditions: cited from earlier work
[7] = Mus musculus, B16-F10, mean ± SE

`C[C@@H](NC(=O)[C@@H](N)Cn1ccc(=O)c(O)c1)C(=O)O` [Mi-D-Ala] gave an IC50 (mushroom tyrosinase [1]) of 17.7 ± 3.1 µM, an IC50 (B16F10 melanoma cells; [7]) of 199 ± 5.2 µM and an IC50 (COX-1) of 19.1 ± 1 µM. For the same molecule, the IC50 (COX-2 [2]) was 198 ± 3.7 µM, the “SI COX-1/COX-2 (selectivity index, COX-1 IC50/COX-2 IC50)” value (COX-2 [3]) was 0.10 and the IC50 ([4]; Mus musculus, B16-F10, 48 h) was 181 ± 6.8 µM.

Molecule `N[C@@H](Cn1ccc(=O)c(O)c1)C(=O)N[C@H](Cc1ccccc1)C(=O)O` [Mi-D-Phe] has an IC50 (mushroom tyrosinase [1]) of 19.7 ± 0.8 µM, an IC50 (B16F10 melanoma cells; [7]) of 168.4 ± 1.4 µM and an IC50 ([4]; Mus musculus, B16-F10, 48 h) of 194 ± 6.2 µM.

For `N[C@@H](Cn1ccc(=O)c(O)c1)C(=O)N1CCC[C@@H]1C(=O)O` [Mi-D-Pro], the IC50 (mushroom tyrosinase [1]) was 17.2 ± 2.1 µM, the IC50 (B16F10 melanoma cells; [7]) was 123 ± 3 µM and the IC50 (COX-1) was 21 ± 2 µM. For the same molecule, the IC50 (COX-2 [2]) was 128 ± 7.7 µM, the “SI COX-1/COX-2 (selectivity index, COX-1 IC50/COX-2 IC50)” value (COX-2 [3]) was 0.15 and the IC50 ([4]; Mus musculus, B16-F10, 48 h) was 146 ± 5.2 µM.

With `N[C@@H](Cn1ccc(=O)c(O)c1)C(=O)N[C@H](Cc1c[nH]c2ccccc12)C(=O)O` [Mi-D-Trp] the IC50 (mushroom tyrosinase [1]) was 17 µM and 16.9 µM, the IC50 (B16F10 melanoma cells; [7]) was 116 ± 4.9 µM and the “Inhibition Type” value (mushroom tyrosinase [5]) was “competitive”. For the same molecule, the Ki (mushroom tyrosinase [5]) was 80 µM, the IC50 (COX-1) was 26.1 ± 1.3 µM and the IC50 (COX-2 [2]) was 27.5 ± 2.2 µM. For the same molecule, the “SI COX-1/COX-2 (selectivity index, COX-1 IC50/COX-2 IC50)” value (COX-2 [3]) was 0.95 and the IC50 ([4]; Mus musculus, B16-F10, 48 h) was 150 ± 2.3 µM.

In the case of `CC(C)[C@@H](NC(=O)[C@@H](N)Cn1ccc(=O)c(O)c1)C(=O)O` [Mi-D-Val], the IC50 (mushroom tyrosinase [1]) is reported as 10 µM and 10.3 µM, the IC50 (B16F10 melanoma cells; [7]) is reported as 112 ± 8.1 µM and the “Inhibition Type” value (mushroom tyrosinase [5]) is reported as “competitive”. For the same molecule, the Ki (mushroom tyrosinase [5]) was 20 µM and the IC50 ([4]; Mus musculus, B16-F10, 48 h) was 162 ± 4.1 µM.

For `C[C@H](NC(=O)[C@@H](N)Cn1ccc(=O)c(O)c1)C(=O)O` [Mi-L-Ala], the IC50 (mushroom tyrosinase [1]) was 23.1 ± 2.2 µM, the IC50 (B16F10 melanoma cells; [7]) was 128 ± 7.4 µM and the IC50 ([4]; Mus musculus, B16-F10, 48 h) was 172 ± 4.6 µM.

For `N[C@@H](Cn1ccc(=O)c(O)c1)C(=O)N[C@@H](Cc1ccccc1)C(=O)O` [Mi-L-Phe], the IC50 (mushroom tyrosinase [1]) was 24.1 ± 3.8 µM, the IC50 (B16F10 melanoma cells; [7]) was 121 ± 8.6 µM and the IC50 ([4]; Mus musculus, B16-F10, 48 h) was 179.2 ± 1.3 µM.

With `N[C@@H](Cn1ccc(=O)c(O)c1)C(=O)N1CCC[C@H]1C(=O)O` [Mi-L-Pro] the IC50 (mushroom tyrosinase [1]) was 13 µM and 13.1 µM, the IC50 (B16F10 melanoma cells; [7]) was 110 ± 5.3 µM and the “Inhibition Type” value (mushroom tyrosinase [5]) was “competitive”. The Ki (mushroom tyrosinase [5]) was 50 µM, the IC50 (COX-1) was 17.9 ± 2.1 µM and the IC50 (COX-2 [2]) was 29.3 ± 3 µM. It also gave an IC50 ([4]; Mus musculus, B16-F10, 48 h) of 167 ± 7.3 µM.

`N[C@@H](Cn1ccc(=O)c(O)c1)C(=O)N[C@@H](Cc1c[nH]c2ccccc12)C(=O)O` [Mi-L-Trp] showed an IC50 (mushroom tyrosinase [1]) of 19.2 ± 1.5 µM, an IC50 (B16F10 melanoma cells; [7]) of 109 ± 2.7 µM and an IC50 (COX-1) of 20.4 ± 1.6 µM. The IC50 (COX-2 [2]) was 19 µM and 19.3 µM and the IC50 ([4]; Mus musculus, B16-F10, 48 h) was 156 ± 8.3 µM.

For `CC(C)[C@H](NC(=O)[C@@H](N)Cn1ccc(=O)c(O)c1)C(=O)O` [Mi-L-Val], the IC50 (mushroom tyrosinase [1]) was 12 µM and 11.5 µM, the IC50 (B16F10 melanoma cells; [7]) was 170 ± 7.5 µM and the “Inhibition Type” value (mushroom tyrosinase [5]) was “competitive”. For the same molecule, the Ki (mushroom tyrosinase [5]) was 30 µM, the IC50 (COX-1) was 24.4 ± 1.4 µM and the IC50 (COX-2 [2]) was 22 µM and 21.7 µM. For the same molecule, the “SI COX-1/COX-2 (selectivity index, COX-1 IC50/COX-2 IC50)” value (COX-2 [3]) was 1.12 and the IC50 ([4]; Mus musculus, B16-F10, 48 h) was 172 ± 6.5 µM.

For `N[C@@H](Cn1ccc(=O)c(O)c1)C(=O)O` [Mimosine, β-[N-(3-hydroxy-4-oxypyridyl)]-α-aminopropionic acid], the IC50 (mushroom tyrosinase [1]) was 32.4 ± 1.1 µM, the IC50 (B16F10 melanoma cells; [7]) was about 226 µM and the IC50 (B16F10 melanoma cells; mean ± SE) was 226 ± 4 µM. For the same molecule, the IC50 (COX-1) was 29 µM and 28.8 µM, the IC50 (COX-2 [2]) was 21 µM and 20.9 µM and the “SI COX-1/COX-2 (selectivity index, COX-1 IC50/COX-2 IC50)” value (COX-2 [3]) was 1.38. For the same molecule, the IC50 ([4]; 48 h) was 388 ± 7.2 µM, the IC50 ([4]; Mus musculus, B16-F10, 48 h) was about 388 µM and the “Inhibition type of tyrosinase” value (mushroom tyrosinase [6]) was “competitive”.
